# From patent US7741479B2, “Urea inhibitors of MAP kinases” (Locus Pharmaceuticals, Inc., priority 2004, dated 2010)
# Target: T1, p38 (Homo sapiens, UniProt Q16539)
# T1 construct: made in house
# Assay: Protein Kinase Assay (33P incorporation from γ-[33P]ATP into GST-ATF-2 substrate)
# Type: biochemical
# Details: compound at 3 μM (noted beside the value in Table 1); read-out: Protein Kinase (% Inhibition)
# Procedure: Human non-activated p38 kinase (MW=43 kDa) was purified according to the protocol described herein. Chemicals were purchased from Calbiochem. Fluorescence characterizations were conducted using a Cary Eclipse (Varian Analytical Instruments, Walnut Creek, Calif.). Research-grade CM5 sensor chips and coupling reagents (N-ethyl-N′-dimethylaminopropylcarbodiimide (EDC) N-hydroxysuccinimide (NHS), and 1 M ethanolamine HCl, pH 8.5) were purchased from Biacore AB (Uppsala, Sweden). The biosensor analyses were conducted using a Biacore 3000 SPR instrument. The kinetic analyses were carried on a Molecular Devices spectrophotometer (Molecular Devices Corporation, CA, USA).
# Protein Kinase Assay. The protein kinase activity of p38 was determined by measuring the incorporation of ^33P from γ-[^33P]ATP into the GST-ATF-2 substrate, amino acids 19-96 (Upstate, NY USA). […] Compounds were preincubated with 10 nM p38 for 20 min at 30° C.; the reactions were initiated by the addition of GST-ATF2 and ATP and incubated for 70 min at 30° C. before being stopped by the addition of 10 μL of 600 mM phosphoric acid. The phosphorylated substrate was captured on phosphocellulose 96-well plate (Millipore MAPHNOB 10), washed with 100 mM phosphoric acid, and counted in a BeckmenCoulter LS6500 liquid scintillation counter.
# T1 sequence (Q16539 whole entry): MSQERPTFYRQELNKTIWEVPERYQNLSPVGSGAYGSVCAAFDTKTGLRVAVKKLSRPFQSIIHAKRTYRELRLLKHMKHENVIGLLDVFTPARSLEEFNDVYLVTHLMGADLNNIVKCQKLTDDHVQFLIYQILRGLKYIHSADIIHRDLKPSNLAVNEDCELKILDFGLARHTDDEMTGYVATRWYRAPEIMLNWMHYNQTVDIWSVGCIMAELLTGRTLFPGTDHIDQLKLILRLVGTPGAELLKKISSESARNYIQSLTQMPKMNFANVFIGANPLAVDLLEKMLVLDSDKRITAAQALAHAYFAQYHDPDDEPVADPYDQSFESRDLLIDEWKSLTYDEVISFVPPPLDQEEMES
row,inhibition at 3 µM [%],Compound
1,51 to 75,"CC(C)(C)c1cc(C(=O)N2CCNS(=O)(=O)CC2)c(NC(=O)Nc2cccc3ccccc23)s1 [Example 37, 1-[5-tert-butyl-3-(1,1-dioxo-1λ^6-[1,2,5]thiadiazepane-5-carbonyl)thiophen-2-yl]-3-naphthalen-1-ylurea]"
2,76 to 100,"CC(C)(C)c1cc(C(=O)N2CCNS(=O)(=O)CC2)c(NC(=O)Nc2ccc3ccccc3c2)s1 [Example 38, 1-[5-tert-butyl-3-(1,1-dioxo-1λ^6-[1,2,5]thiadiazepane-5-carbonyl)thiophen-2-yl]-3-naphthalen-2-ylurea]"
3,76 to 100,"CC(C)(C)c1cc(C(=O)N2CCNS(=O)(=O)CC2)c(NC(=O)Nc2ccc(Cl)cc2)s1 [Example 39, 1-[5-tert-butyl-3-(1,1-dioxo-1λ^6-[1,2,5]thiadiazepane-5-carbonyl)thiophen-2-yl]-3-(4-chlorophenyl)urea]"
4,76 to 100,"CC(C)(C)c1cc(C(=O)N2CC[S@SP2](=O)(=O)CC2)c(NC(=O)Nc2ccc(Br)c3ccccc23)s1 [Example 40, 1-(4-Bromonaphthalen-1-yl)-3-[5-tert-butyl-3-(1,1-dioxo-1λ^6-thiomorpholine-4-carbonyl)thiophen-2-yl]urea]"
5,76 to 100,"CC(C)(C)c1cc(C(=O)N2CCS(=O)(=O)CC2)c(NC(=O)Nc2ccc(Cl)c3ccccc23)s1 [Example 41, 1-[5-tert-butyl-3-(1,1-dioxo-1λ^6-thiomorpholine-4-carbonyl)thiophen-2-yl]-3-(4-chloronaphthalen-1-yl)urea]"
6,76 to 100,"CC(C)(C)c1cc(C(=O)N2CCS(=O)(=O)CC2)c(NC(=O)Nc2cccc3nc[nH]c23)s1 [Example 42, 1-(3H-Benzimidazol-4-yl)-3-[5-tert-butyl-3-(1,1-dioxo-1λ^6-thiomorpholine-4-carbonyl)thiophen-2-yl]urea]"
7,76 to 100,"CC(C)(C)c1cc(C(=O)N2CCS(=O)(=O)CC2)c(NC(=O)Nc2ccc(C#N)c3ccccc23)s1 [Example 43, 1-[5-tert-butyl-3-(1,1-dioxo-1λ^6-thiomorpholine-4-carbonyl)thiophen-2-yl]-3-(4-cyanonaphthalen-1-yl)urea]"

# Same assay, conditions: compound at 3 μM; read-out: Protein Kinase (% Inhibition at 3 μM)
row,inhibition at 3 µM [%],Compound
1,76 to 100,"CC(C)(C)c1cc(C(=O)NCCS(C)(=O)=O)c(NC(=O)Nc2cccc3ccccc23)s1 [Example 45, 1-(3-(2-(Methylsulfonyl)ethylcarbamoyl)-5-tert-butylthiophen-2-yl)-3-(naphthalen-1-yl)urea]"
2,76 to 100,"CC(C)(C)c1cc(C(=O)N2CCNC(=O)CC2)c(NC(=O)Nc2ccc(Cl)cc2)s1 [Example 46, 1-[5-tert-butyl-3-(5-oxo-[1,4]diazepane-1-carbonyl)thiophen-2-yl]-3-(4-chloro-phenyl)urea]"
3,76 to 100,"CC(C)(C)c1cc(C(=O)N2CCNC(=O)C2)c(NC(=O)Nc2ccc(Cl)cc2)s1 [Example 47, 1-[5-tert-butyl-3-(3-oxopiperazine-1-carbonyl)thiophen-2-yl]-3-(4-chloro-phenyl)urea]"
4,51 to 75,"CC(C)(C)c1cc(C(=O)N2CCS(=O)(=O)CC2)c(NC(=O)Nc2c[nH]c3ccccc23)s1 [Example 49, 1-[5-tert-butyl-3-(1,1-dioxo-1λ^6-thiomorpholine-4-carbonyl)thiophen-2-yl]-3-(1H-indol-3-yl)urea]"
5,76 to 100,"CC(C)(C)c1cc(NC(=O)Nc2cccc3ccccc23)c(C(=O)N2CCNC(=O)CC2)s1 [Example 50, 1-[5-tert-butyl-2-(5-oxo-[1,4]diazepane-1-carbonyl)thiophen-3-yl]-3-naphthalen-1-ylurea]"
6,76 to 100,"CC(C)(C)c1cc(NC(=O)Nc2cccc3ccccc23)c(C(=O)N2CCNS(=O)(=O)CC2)s1 [Example 51, 1-[5-tert-butyl-2-(1,1-dioxo-1λ^6-[1,2,5]thiadiazepane-5-carbonyl)thiophen-3-yl]-3-naphthalen-1-ylurea]"
7,76 to 100,"CC(C)(C)c1cc(NC(=O)Nc2cccc3ccccc23)c(C(=O)N2CCNC(=O)C2)s1 [Example 52, 1-[5-tert-butyl-2-(3-oxopiperazine-1-carbonyl)thiophen-3-yl]-3-naphthalen-1-ylurea]"
8,76 to 100,"CC(C)(C)c1cc(C(=O)N2CCNC(=O)CC2)c(NC(=O)Nc2cccc(Cl)c2Cl)s1 [Example 53, 1-[5-tert-butyl-3-(5-oxo-[1,4]diazepane-1-carbonyl)thiophen-2-yl]-3-(2,3-dichlorophenyl)urea]"
9,76 to 100,"CC(C)(C)c1cc(C(=O)N2CCNC(=O)CC2)c(NC(=O)Nc2cccc(Cl)c2)s1 [Example 54, 1-[5-tert-butyl-3-(5-oxo-[1,4]diazepane-1-carbonyl)thiophen-2-yl]-3-(3-chlorophenyl)urea]"
10,76 to 100,"CC(C)(C)c1cc(C(=O)N2CCNC(=O)CC2)c(NC(=O)Nc2ccc(C#N)c3ccccc23)s1 [Example 55, 1-[5-tert-butyl-3-(5-oxo-[1,4]diazepane-1-carbonyl)thiophen-2-yl]-3-(4-cyanonaphthyl)urea]"

# Same assay, conditions: compound at 10 μM
row,inhibition at 10 µM [%],Compound
1,0 to 25,"CC(C)(C)c1cc(C(=O)N2CCS(=O)(=O)CC2)c(NC(=O)Nc2cccc3cccnc23)s1 [Example 29, 1-[5-tert-butyl-3-(1,1-dioxo-1λ^6-thiomorpholine-4-carbonyl)thiophen-2-yl]-3-quinolin-8-ylurea]"
2,51 to 75,"CC(C)(C)c1cc(C(=O)N2CCS(=O)(=O)CC2)c(NC(=O)NC2CCc3ccccc32)s1 (stereo not shown) [Example 30, 1-[5-tert-butyl-3-(1,1-dioxo-1λ^6-thiomorpholine-4-carbonyl)thiophen-2-yl]-3-indan-1-ylurea]"
3,51 to 75,"CC(C)(C)c1cc(C(=O)N2CCS(=O)(=O)CC2)c(NC(=O)Nc2ccnc3ccccc23)s1 [Example 31, 1-[5-tert-butyl-3-(1,1-dioxo-1λ^6-thiomorpholine-4-carbonyl)thiophen-2-yl]-3-quinolin-4-ylurea]"
4,26 to 50,"CC(C)(C)c1cc(C(=O)N2CCS(=O)(=O)CC2)c(NC(=O)Nc2cccc3cn[nH]c23)s1 [Example 32, 1-[5-tert-butyl-3-(1,1-dioxo-1λ^6-thiomorpholine-4-carbonyl)thiophen-2-yl]-3-(1H-indazol-7-yl)urea]"
5,0 to 25,"CC(C)(C)c1cc(C(=O)N2CCS(=O)(=O)CC2)c(NC(=O)Nc2ccc3c(c2)NC(=O)CC3)s1 [Example 33, 1-[5-tert-butyl-3-(1,1-dioxo-1λ^6-thiomorpholine-4-carbonyl)thiophen-2-yl]-3-(2-oxo-1,2,3,4-tetrahydroquinolin-7-yl)urea]"
6,76 to 100,"CC(C)(C)c1cc(C(=O)N2CCS(=O)(=O)CC2)c(NC(=O)Nc2ccc(O)c3ccccc23)s1 [Example 34, 1-[5-tert-butyl-3-(1,1-dioxo-1λ^6-thiomorpholine-4-carbonyl)thiophen-2-yl]-3-(4-hydroxynaphthalen-1-yl)urea]"
7,51 to 75,"CC(C)(C)c1cc(C(=O)N2CCNC(=O)C2)c(NC(=O)Nc2cccc3ccccc23)s1 [Example 35, 1-[5-tert-butyl-3-(3-oxopiperazine-1-carbonyl)thiophen-2-yl]-3-naphthalen-1-ylurea]"
8,76 to 100,"CC(C)(C)c1cc(C(=O)N2CCNC(=O)CC2)c(NC(=O)Nc2ccc3ccccc3c2)s1 [Example 44, 1-[5-tert-butyl-3-(5-oxo[1,4]diazepane-1-carbonyl)thiophen-2-yl]-3-naphthalen-2-ylurea]"
